Experimental data reported in publication PMC3303619, “In Situ Absorption in Rat Intestinal Tract of Solid Dispersion of Annonaceous Acetogenins” (Gastroenterology Research and Practice, 2012).
≈ marks a conversion by molar mass, not a printed value.

What was measured:
[1] = system: duodenum, jejunum, ileum, and colon segment; assay: SPIP in different intestinal segments; assay type: in vivo, Sprague-Dawley rats; settings: 300 μg/mL, values are P app × 10^3, mean ± SD, n = 6
Description: The study followed the method described in Li et al. and Dahan and Amidon. Each 10 cm long intestinal segment was isolated as follows: duodenum segment beginning from 1 cm distal to pylorus, jejunum segment beginning from 15 cm away from pylorus, ileum segment beginning at the site 20 cm upwards caecum, while segment colon beginning at the site 2 cm distal to caecum. The above segments were carefully cannulated and ligated with both the ends. Then, each segment was perfused with solution containing different mass of ACGs.
(§1) The effective permeability (K a, P app) of the drug disappearing from the intestinal lumen during the intestinal perfusion was calculated by the steady-state equation: (1) Ka =(1−CoutQout/CinQin)Q/VPapp=[− Qin·ln (CoutQout/CinQin)]/2πrL where the radius of the gut lumen was represented by r, its length by L, and the perfusate flow rate by Q (mL/min). V presents the volume of the tested intestinal. The fraction C out/C in represents the concentration of the drμg leaving the perfused segment (C out) normalized to the concentration entering the segment (C in). The C out values were corrected for net water flux by the gravimetric method.
(§2) Once the intestinal segment reached steady state, subsequent values of C out/C in were used to calculate P app. P app represents the permeability of the compound (cm/s) as determined by the disappearance of the compound from the intestinal lumen. Steady state was assumed to be reached when C out/C in reached a constant value, as determined by direct observation of the data.

complex I = system: complex I; set-up: method as in PMID 8037664; settings: mammalian mitochondria; steady-state and nonsteady-state conditions; cited from earlier work
[2] = Stability of sample solution during storing and preparation (freeze-thaw, room temperature, stock solution); assay type: physicochemical; settings: for Accuracy (mean ± SD)%, Freeze-thaw (three cycles): three freeze (−20°C) and thaw (room temperature) cycles, compared to nominal concentration
Protocol: The stability of sample solution was also tested at room temperature and 4°C, respectively, for 24 h. For freeze-thaw stability testing, the samples were determined after three freeze (−20°C) and thaw (room temperature) cycles, and the concentration was compared to their nominal concentration. For the short-term stability, the samples (three replicates at each QC concentration) were extracted and placed at room temperature for 24 h and then injected into the HPLC system for analysis.
Stock solutions of ACGs were stable for at least 30 days when stored at 4°C. No significant change was found after three freeze-thaw cycles and stored at room temperature for 24 h (Table 1).

intestinal loop in rats = assay: Single-pass intestinal perfusion (SPIP) in rats at different perfusate concentrations; assay type: in vivo, Sprague-Dawley rats; settings: values are P app × 10^3, mean ± SD, n = 6
Protocol: We used male Sprague-Dawley rats weighing 250 ± 20 g for all perfusion studies. The drug solution was prepared by dispersing the ACGs-SD in the K-R buffer solution and installed in the cylinder, which was incubated in at 37°C water bath to maintain temperature.
The in situ SPIP experiment was conducted according to the previously published reports. Firstly, six male Sprague-Dawley rats were placed in respective cages and fasted overnight before the experiment with free access to water. Rats were anesthetized with an intraperitoneal injection of pentobarbital sodium (40 mg/Kg body weight, i.p. injection), restrained in a supine position, and kept at a body temperature of 37°C using infrared lamps.
Bile duct was ligated and the intestinal content was immediately washed away with 37°C saline solution at a flow rate of 5 mL/min, by cannulating polyethylene tubings (3.2 mm diameter) using a peristaltic pump (BT00-100 M, Baoding Longer Precision Pump Co., Ltd., China). The isolated segment, duodenum, jejunum, ileum, and colon were rinsed with physiological saline to clean any residual debris until the out flowing became colorless. Then, the intestinal loop was made by ligating both ends of the intestinal loop from 4 cm below the bile duct opening to a segment above the ileocecum of small intestine of anesthetized rats. Care was taken to handle the small intestine gently in order to maintain an intact blood supply. The whole surgical area was covered with a piece of sterilized gauze wetted with physiological saline solution.
ACGs-SD was dissolved in K-R buffer solution (0.35 g KCl, 1.37 g NaHCO3, 7.8 g NaCl, 0.22 g NaH2PO4, 0.02 g MgCl2, and glucose in 1.48 g/1000 mL purified water, pH 6.5) at a concentration of 200 μg/mL, 300 μg/mL, 500 μg/mL of ACGs, and the solution was administered to the loop via the polyethylene tubing inserted into the loop. At the start of the study, the perfusion buffer containing sample solution was first perfused at a flow rate of 5 mL/min to ensure filling the segment rapidly, and the time was set to zero with the immediate start of the perfusion and the solution volume in circulation was recorded as the 0 min volume. After 10 min, when steady-state condition was achieved, the flow rate was adjusted to 0.2 mL/min, and the outlet perfused samples were collected at time intervals (5, 10, 15, 30, 60, 90, 120 min) for 2 h. During 2 h perfusion period, at each time period, assemble the outlet solution. At the end of the experiment, the length of perfused intestinal segment was measured without stretching.
as §1, §2

[3] = Stability of ACGs in K-R buffer solution; assay type: physicochemical; settings: ACGs-SD in K-R buffer, 37°C, n = 3
Protocol: Exact amount of ACGs-SD was dissolved in K-R buffer solution at 37°C in water bath. Chermolin-1, annonacin, squamocin, and annonin-VI were determined at 0, 30, 60, 90, and 120 min to analysis the stability of ACGs in K-R buffer solution.

[4] = Solubility studies in distilled water; assay type: physicochemical; settings: 37 °C, thermodynamic from solid, component from ACGs solid dispersion (PEG 4000), 37 ± 0.5°C
Protocol: Solubility studies were conducted by placing an excess amount of ACGs (approximately 15 mg) and ACG-solid dispersion in 10 mL distilled water, and the mixture was heated at 37 ± 0.5°C in a water bath to facilitate the solubilization using a vortex mixer. Mixtures were equilibrated at 37 ± 0.5°C for 72 h in a water bath. The equilibrated samples were centrifuged at 3000 rpm for 15 min to remove the undissolved material. The supernatant was determined by HPLC.

T24 bladder cancer cells = system: T24 bladder cancer cells; set-up: method as in PMID 16154156; settings: cytotoxicity in a Bax- and caspase-3-related pathway; cited from earlier work
K562 cells = system: K562 cells; set-up: method as in PMID 16310807; settings: cited from earlier work
[5] = ACGs-SD perfusate concentration 200 μg · mL^−1
[6] = ACGs-SD perfusate concentration 300 μg · mL^−1
[7] = ACGs-SD perfusate concentration 500 μg · mL^−1

Row | SMILES | P app × 10^3 ([1]; Duodenum) | P app × 10^3 ([1]; Ileum) | P app × 10^3 ([1]; Jejunum) | P app × 10^3 ([1]; colon) | Effect on proton pumping function of complex I (complex I) | Accuracy (mean ± SD)%, Samples at room temperature for 24 h [2] | Accuracy (mean ± SD)%, Freeze-thaw (three cycles) [2] | P app × 10^3 (intestinal loop in rats; [5]) | P app × 10^3 (intestinal loop in rats; [6]) | P app × 10^3 (intestinal loop in rats; [7]) | Stability in K-R buffer solution, remaining ([3]; time 0 h) | Stability in K-R buffer solution, remaining ([3]; time 0.5 h) | Stability in K-R buffer solution, remaining ([3]; time 1 h) | solubility at 72 h [4] | Effect on cell cycle of T24 bladder cancer cells (T24 bladder cancer cells) | Stability in K-R buffer solution, remaining ([3]; time 2 h) | Effect on proliferation of K562 cells (K562 cells)
1 | CCCCCCCCCC[C@H](O)[C@H]1CC[C@H]([C@H]2CC[C@H]([C@H](O)CCCCCCCCCC[C@@H](O)CC3=C[C@H](C)OC3=O)O2)O1 [Annonin-VI, annonin-VI] | 2.28 ± 0.29 cm · s^−1 | 1.26 ± 0.30 cm · s^−1 | 1.87 ± 0.29 cm · s^−1 | 1.10 ± 0.45 cm · s^−1 | inhibited the proton pumping function of complex I | 98.3 ± 2.1% | 99.3 ± 5.0% | 0.75 ± 0.37 cm · s^−1 | 0.75 ± 0.21 cm · s^−1 | 0.79 ± 0.30 cm · s^−1 | 100% | 95.64% | 99.59% | 250 µg/mL (≈ 401 µM) | – | – | –
2 | CCCCCCCCCCCC[C@@H](O)[C@H]1CC[C@H]([C@H](O)CCCC[C@H](O)CCCCC[C@@H](O)CC2=CC(C)OC2=O)O1 (some centres unmarked) [Annonacin, annonacin] | 1.36 ± 0.34 cm · s^−1 | 1.17 ± 0.49 cm · s^−1 | 1.38 ± 0.82 cm · s^−1 | 0.95 ± 0.45 cm · s^−1 | – | 96.3 ± 2.1% | 96.0 ± 1.0% | 1.29 ± 0.12 cm · s^−1 | 0.92 ± 0.23 cm · s^−1 | 0.69 ± 0.31 cm · s^−1 | 100% | 98.63% | 98.59% | 213 µg/mL (≈ 357 µM) | arrest T24 bladder cancer cells at the G1 phase | 96.16% | –
3 | CCCCCC[C@H](O)CCC[C@H](O)[C@H]1CC[C@H]([C@H]2CC[C@H]([C@H](O)CCCCCCCCCCCCC3=C[C@H](C)OC3=O)O2)O1 [Squamocin, squamocin] | 1.24 ± 0.27 cm · s^−1 | 1.14 ± 0.31 cm · s^−1 | 1.30 ± 0.27 cm · s^−1 | 1.03 ± 0.19 cm · s^−1 | – | 101.3 ± 6.2% | 101.6 ± 4.2% | 0.96 ± 0.28 cm · s^−1 | 0.96 ± 0.27 cm · s^−1 | 0.93 ± 0.32 cm · s^−1 | 100% | 100.51% | 99.86% | 1080 µg/mL (≈ 1740 µM) | – | 98.58% | inhibit the proliferation of K562 cells via G2/M arrest
